≈ marks a conversion by molar mass, not a printed value. Read-outs that look alike come from different tables or passages of the source. Bounds are passed on as bounds.

The source of these data is patent US8445533B2, “Andrographolide derivatives to treat viral infections” (Cornell Research Foundation, Inc., priority 2004, dated 2013).

Data set [1] deals with HCV replicon-bearing cells (subgenomic 1a). The data set can be described thus: MTT cytotoxicity in HCV replicon cells, subgenomic 1a. Format: cell-based, human. As to conditions: 4 days. On the procedure:
(§1) HCV replicon—SEAP (secreted alkaline phosphatase) cell lines have been described previously. Low passage cell stocks of cell lines stored frozen (−160° C.) were used in the assays. Serial dilutions of test compounds were made from initial stocks and each concentration plated in 96-well plates. Low passage HCV replicon-bearing cells were then trypsinized, counted and seeded into the wells. The plates were incubated at 37° C. in a CO2 incubator for 4 days. The culture supernatant was then removed from each well and heat inactivated for 30 min at 65° C. SEAP activity was measured and EC50 values calculated by comparing SEAP present in drug-treated and untreated wells. Cytotoxicity produced by compounds during screening was evaluated by MTT assay at the end of the incubation period.
(Replicon systems follow genome replication, usually without infectious particles.)

The test system of data set [2] is HCV replicon subgenomic 1a. The data set can be described thus: HCV replicon SEAP reporter assay, subgenomic 1a. Format: cell-based, hepatitis C virus. As to conditions: 4 days. On the procedure:
as §1
(§2) Growth medium from each well was aspirated prior to the addition of lysis solution followed by vigorous pipetting. Each lysate was processed using DNase I treatment. Total RNA was eluted into orgainic carbon-free water and converted into cDNA enzymatically.

In data set [3] the test system is HCV replicon subgenomic 1b Strain N. Kind of data set: HCV replicon SEAP reporter assay, subgenomic 1b Strain N. Format: cell-based, hepatitis C virus. The note with it: 4 days. On the procedure: as §1, §2
Data set [4] concerns HCV replicon-bearing cells (subgenomic 1b Strain N). Kind of data set: MTT cytotoxicity in HCV replicon cells, subgenomic 1b Strain N. Format: cell-based, human. The note with it: 4 days. On the procedure:
as §1

Another data set has as its system tumor cell lines. The note with it: cited from earlier work.
The target of the next data set is funin (Homo sapiens, UniProt P09958). The note with it: cited from earlier work.
Chain of funin (P09958 108-794): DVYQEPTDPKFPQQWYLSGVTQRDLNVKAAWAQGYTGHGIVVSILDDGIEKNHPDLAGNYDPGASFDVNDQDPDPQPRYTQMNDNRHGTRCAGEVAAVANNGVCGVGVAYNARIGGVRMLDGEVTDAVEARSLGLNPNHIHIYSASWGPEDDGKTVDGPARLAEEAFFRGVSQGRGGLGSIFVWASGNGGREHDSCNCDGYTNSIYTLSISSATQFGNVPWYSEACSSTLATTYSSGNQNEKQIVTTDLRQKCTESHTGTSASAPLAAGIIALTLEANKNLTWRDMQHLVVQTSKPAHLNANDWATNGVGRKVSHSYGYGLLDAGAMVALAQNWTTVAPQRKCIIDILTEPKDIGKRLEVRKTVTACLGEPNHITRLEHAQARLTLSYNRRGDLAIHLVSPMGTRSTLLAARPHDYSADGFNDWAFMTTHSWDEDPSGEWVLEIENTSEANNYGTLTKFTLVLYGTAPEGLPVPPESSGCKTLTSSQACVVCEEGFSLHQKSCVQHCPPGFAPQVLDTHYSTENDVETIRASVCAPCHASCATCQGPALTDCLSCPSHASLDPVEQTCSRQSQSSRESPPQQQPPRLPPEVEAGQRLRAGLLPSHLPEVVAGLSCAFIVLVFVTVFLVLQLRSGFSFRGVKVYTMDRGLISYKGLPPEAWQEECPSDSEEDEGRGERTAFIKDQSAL
Another data set concerns isolated rat hepatocytes. The note with it: ex vivo isolated rat hepatocytes; cited from earlier work.
In the next data set the test system is proprotein convertase-1. The note with it: cited from earlier work.
For a further data set, the system named is proprotein convertase-7. As to conditions: cited from earlier work.
The next data set relates to KB. As to conditions: cited from earlier work.
The subject of data set [5] is P388 lymphocytic leukemia. The note with it: cited from earlier work.
The test system of data set [6] is cytopathogenic isolate of BVDV. Kind of data set: BVDV viral yield assay in woodchuck primary hepatocytes.
Excerpt: (§3) Woodchuck primary hepatocyte cultures and hepatic cell lines were inoculated with a cytopathogenic isolate of BVDV.
A further data set can be described thus: in vitro. The note with it: woodchuck.
Data set [7] relates to cytopathogenic isolate of BVDV. The data set can be described thus: BVDV antiviral assay in woodchuck hepatic cell line WCH-8.
Excerpt: as §3
Another data set relates to HIV-1 (IIIB). The note with it: Chang et al. 1991; cited from earlier work.
The test system of the next data set is uninfected NCL cells. The data set can be described thus: Cytotoxicity toward uninfected NCL cells (methylene blue assay). The note with it: Example 2B. It is filed as cell-based, bovine.
Data set [8] concerns woodchuck primary hepatocytes. Kind of data set: Cytotoxicity in woodchuck primary hepatocytes.
Excerpt: as §3
The test system of a further data set is cpBVDV isolate NADL. Kind of data set: BVDV antiviral assay in NCL bovine uterine cell line (viral-induced cell killing, viral yield). As to conditions: Example 2B. On the procedure: Derivatives of andrographolide were tested in an in vitro assay which measures the antiviral potential against a cytopathogenic isolate of BVDV in a permissive bovine uterine cell line.
The capacity to measure the effectiveness of compounds to reduce BVDV replication in vitro provides a system for preclinical assessment of potential drugs for treatment of viral infection and for analyzing possible mechanisms of action.
Cell lines were incubated in a humid atmosphere of 5% CO2 at 37° C. Cells were passaged by dissociation of the monolayer with a solution of trypsin-EDTA (Life Technologies), diluted in culture medium, and split 1:5 to new culture flasks.
A method to measure visible cell numbers involved staining with methylene blue (Sigma, St. Louis, Mo.) and reading the absorbance of the stain in solution after elution from the cells. […] The methylene blue staining solution was removed from the cultures and the culture plates were rinsed in several volumes of H^2O. The culture plates were allowed to air dry; this was followed by elution of the methylene blue stain from the fixed cells by incubation at controlled room temperature in a solution of PBS/50% ethanol and 1% acetic acid for 1 hour, with agitation. The absorbance of the methylene blue dye in solution was measured by an ELISA plate reader (Model EL311; Bio-Tek Instruments, Inc., Winooski, Vt.) at 630 nm. In all experiments described, calculation of cell numbers for each experimental data point was expressed as the average of three wells per experimental treatment (dilution, titer, or antiviral concentration).
The NCL cell line was grown to confluence and passaged to 96 well microtiter plates (Microtest™ 96; Becton Dickinson Labware, Franklin Lakes, N.J.), at a density of 2×10^4 cells/well (0.34 cm^2) and incubated for 1 hour to allow cell attachment. After attachment, the cells of one-half of each microtiter plate were inoculated with a cpBVDV stock diluted to yield a multiplicity of infection (m.o.i.) of 0.01 TCID50 and incubated for 3-6 hours to allow viral attachment and penetration. Following this incubation period, the inoculum was removed and replaced with fresh growth medium.
Three quarters of both cpBVDV infected and uninfected cells were grown in the presence of antiviral compound. The remaining quarter of the microassay plate served as positive (cpVDV infected) and negative (uninfected) control wells. The medium was changed daily and cell killing was measured by the methylene blue assay 3 days post-infection with BVDV.
The culture medium was collected on day 3 post-infection and the reduction in viral yield after antiviral treatment was determined. Supernatant collected from experimental wells was serially diluted ten-fold and used to infect newly prepared NCL cells. the end-point titer, the last dilution at which complete cell killing was evident, was determined in a similar 96 well format using the methylene blue assay for cell killing 5 days after infection.
Cell killing due either to viral infection or to drug cytotoxicity was calculated for each experimental data point and plotted. Regression analysis (curve fitting) was performed with SigmaPlot4.0 (Jandel Sci, San Rafael, Calif.) using the Regression Wizard library of equations which best fit the collected data.

A further data set concerns WCH-8 cells. Kind of data set: Cytotoxicity in WCH-8 cells.

Excerpt for WCH-8 cells: as §3
Excerpt for in vitro: as §3
Description for uninfected NCL cells: A method to measure visible cell numbers involved staining with methylene blue (Sigma, St. Louis, Mo.) and reading the absorbance of the stain in solution after elution from the cells. […] The methylene blue staining solution was removed from the cultures and the culture plates were rinsed in several volumes of H^2O. […] The absorbance of the methylene blue dye in solution was measured by an ELISA plate reader (Model EL311; Bio-Tek Instruments, Inc., Winooski, Vt.) at 630 nm. In all experiments described, calculation of cell numbers for each experimental data point was expressed as the average of three wells per experimental treatment (dilution, titer, or antiviral concentration).
Three quarters of both cpBVDV infected and uninfected cells were grown in the presence of antiviral compound. […] The medium was changed daily and cell killing was measured by the methylene blue assay 3 days post-infection with BVDV.
Cell killing due either to viral infection or to drug cytotoxicity was calculated for each experimental data point and plotted. […]

By IC50 is commonly meant the concentration needed to halve the response being measured. Read a high IC50 as weaker potency in that assay. In the case of `C[C@@]1(O)[C@H](O)[C@@H](CO)O[C@H]1n1ccc(N)nc1=O` [2′-MeC, B-D-2′-methyl-cytidine], the IC50 in data set [1] and in data set [4] was above 100 µM each time. Moreover, the EC50 amounted to 61.6 µM in data set [2] and 25.1 µM in data set [3].

As for `C=C1CCC2[C@](C)(CC[C@@H](O)[C@@]2(C)CO)C1/C=C/C1=CCOC1=O` (some centres unmarked) [14-deoxy-11,12-didehydroandrographolide], in the data set on tumor cell lines, the cytotoxic activity result is reported as “no cytotoxic activity”.

For the compound `C=C1CC[C@@H]2[C@](C)(CO)[C@H](O)CC[C@@]2(C)[C@@H]1C/C=C1/C(=O)OC[C@H]1O` [Andrographolide], the enzyme inhibition result on funin, in the data set on proprotein convertase-1 and in the data set with proprotein convertase-7 was “relatively little enzyme inhibition” throughout. For the same compound, in the data set on isolated rat hepatocytes, the “protective activity against paracetamol-induced toxicity” value was “protective activity”. Moreover, the cytotoxic activity entry (with KB; in data set [5]) was “significant cytotoxic activity” each time.

Regarding `C=C1CC[C@@H]2[C@](C)(CO[C@@H]3O[C@H](CO)[C@@H](O)[C@H](O)[C@H]3O)CCC[C@@]2(C)[C@@H]1CCC1=CCOC1=O` [neoandrographolide], the cytotoxic activity result in the data set on tumor cell lines (tumor cell lines) was “no cytotoxic activity”.

Consider `NC(=O)c1ncn([C@@H]2O[C@H](CO)[C@@H](O)[C@H]2O)n1` [ribavirin, reference compound], for which the tEC90 in data set [6] stood at 2.9 µg/mL. Moreover, in “in vitro”, the CC50 worked out at 0.35 µg/mL (≈ 1.43 µM). Besides, the EC50 in [7] (Bovine viral diarrhea virus isolates and strains, in Marmota monax, read-out: ckEC50) was 0.27 µg/mL (≈ 1.11 µM).

As to “dehydroandrographolide succinic acid monoester [DASM]”, in the data set on HIV-1 (IIIB), the “minimal concentration inhibitory to HIV-1 (IIIB)” value is 1.6 to 3.1 pg/mL.

For the compound interferon-α, the CC50 result (in the data set with uninfected NCL cells (bovine uterine cell line); in [8]; with WCH-8 cells) was “≧1000 ng/ml” each time. Also, the “cytotoxicity, result in words” value is “did not exhibit cytotoxicity over the range tested” in the data set with uninfected NCL cells (over the range tested), “no cytotoxicity was observed over the range tested” in data set [8] (over the range tested) and “No cytotoxicity was observed” with WCH-8 cells (up to a dose of 1000 ng/ml). Moreover, the tEC90 in [6] stood at 0.825 µg/mL; with cpBVDV isolate NADL (bovine uterine cell line), 0.15 ng/mL; in the data set on cpBVDV isolate NADL (bovine uterine cell line, listed as IFN-α), 150 ng/mL; in data set [7] (WCH-8 cells), 64 ng/mL. In addition, in the data set with cpBVDV isolate NADL, the “concentration range of reduction in viral-induced cell killing” value was in the range of 0.1 to 1000 ng/mL. The “maximal reduction in viral-induced cell killing” value in the data set on cpBVDV isolate NADL worked out at 80%. For the same compound, the “reduction in viral yields” value with cpBVDV isolate NADL came to 2 logs. Moreover, the “S.I. (CC50/EC90)” value with cpBVDV isolate NADL (bovine uterine cell line) came to 6667. The ckEC50 was 0.0074 ng/mL in the data set on cpBVDV isolate NADL (bovine uterine cell line) and 288 ng/mL in [7] (WCH-8 cells).
